Results: patent US4771041A, “Method for combating virus infection” (priority 1976, dated 1988)

Legend:
herpes simplex type 1 = experiment: Herpes simplex type 1 plaque reduction assay on GMK monolayers; assay type: cell-based; details: mean of three experiments
Method: The inhibition of influenza virus and herpes virus by phosphonoformic acid has been measured as plaque reaction according to the following procedures.
H. Inhibition by phosphonoformic acid of herpes simplex type 1 plaque
The plaque reduction assay for herpes simplex type 1 was performed on GMK (Green Monkey Kidney) cells as described by Ejereito et el., J. Gen. Virol. 2 (1968) 357. Monolayers on 5 cm petri dishes were used and after virus adsorption phosphonoformic acid was added in the medium.

[1] = test system: reverse transcriptase from AMV; experiment: Cell-free reverse transcriptase inhibition, AMV; assay type: biochemical, avian myeloblastosis virus
Method: Reverse transcriptase from various retroviruses have been tested in cell-free assays for inhibition by phosphonoformic acid and phosphonoacetic acid. The assay conditions have been described by Collaborative Research, Inc, 1365 Main Street, Waltham, Mass., USA "Assay kit for mammalian viral reverse transcriptase". BLV and VV were prepared in this laboratory and all other viruses and viral enzyme were obtained from Dr. K Nilsson, Department of Pathology, University of Uppsala and from Boehringer Mannheim, Germany. Phosphonoformic acid (PFA) and phosphonoacetic acid (PAA) were added at pH 7.2 to the reaction mixtures at the start of the reaction.
Rauscher murine leukemia virus; RMuLV, visna virus; VV, avian myeloblastosis virus; AMV, bovine leukemia virus; BLV, baboon endogenous virus; BaEV, simian sarcoma virus; SSV.

[2] = molecular target: type A influenza virion-associated RNA polymerase (Influenza A virus (A/nt/60/1968(H3N2)), UniProt P03432); experiment: Inhibition of type A influenza virion-associated RNA polymerase; assay type: biochemical, Influenza A2 Aichi virus; details: mean of two experiments
Chain of type A influenza virion-associated RNA polymerase (Influenza A virus (A/nt/60/1968(H3N2)), UniProt P03432) (P03432 whole entry, looked up): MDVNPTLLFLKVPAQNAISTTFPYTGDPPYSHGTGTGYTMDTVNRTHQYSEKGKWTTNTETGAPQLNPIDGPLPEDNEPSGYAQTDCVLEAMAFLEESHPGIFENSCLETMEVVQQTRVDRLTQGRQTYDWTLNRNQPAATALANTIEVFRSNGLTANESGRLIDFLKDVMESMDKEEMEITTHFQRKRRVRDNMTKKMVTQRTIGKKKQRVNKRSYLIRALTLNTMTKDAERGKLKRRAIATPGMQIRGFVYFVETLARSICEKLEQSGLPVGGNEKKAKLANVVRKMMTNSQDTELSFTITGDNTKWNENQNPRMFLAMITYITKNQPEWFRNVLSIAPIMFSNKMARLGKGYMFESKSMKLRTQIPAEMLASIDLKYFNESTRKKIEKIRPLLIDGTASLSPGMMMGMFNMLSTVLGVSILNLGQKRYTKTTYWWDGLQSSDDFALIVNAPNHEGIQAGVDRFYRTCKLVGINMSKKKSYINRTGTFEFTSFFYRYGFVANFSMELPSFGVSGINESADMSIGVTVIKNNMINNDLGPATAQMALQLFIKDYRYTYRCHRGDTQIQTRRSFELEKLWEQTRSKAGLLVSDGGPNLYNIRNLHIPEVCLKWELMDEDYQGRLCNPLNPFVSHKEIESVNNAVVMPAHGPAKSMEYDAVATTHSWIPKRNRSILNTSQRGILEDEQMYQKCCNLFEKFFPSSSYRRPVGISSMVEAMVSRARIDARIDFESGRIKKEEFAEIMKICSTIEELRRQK
Method: Polymerases, nucleic acid template nucleoside triphosphates, of which guanosine triphosphate is tritium-labelled, salt and buffer are mixed at 0° C. in a total volume of 125 μl (for herpes DNA polymerase, see F. below). The concentrations of the nucleoside triphosphates UTP (uridine triphosphate), CTP (cytidinetriphosphate), GTP (guanosinetriphosphate) and ATP (adenosinetriphosphate) were generall 400, 400, 400, and 2000 μM, respectively. The test compound is also added in various concentrations to the mixture obtained. A standard mixture without test compound is also prepared using the same amounts of the ingredients. The enzyme reaction, i.e. synthesis of nucleic acid, is started by incubating the mixture at 37° C. For influenza RNA polymerases the temperature is 33° C. The reaction is allowed to proceed for 60 minutes in the assay of influenza and Micrococcus polymerases. For E.coli DNA dependent RNA polymerase the time is 20 min. and for herpes DNA polymerase 30 minutes. The incubation time for calf thymus polymerases is 10 minutes. The incorporation of labelled monomer into trichloroacetic acid insoluble nucleic acid product was measured in the following way. Before and after the incubation period 50 μl are withdrawn from the mixture and applied to filter discs. These are put in 5% trichloroacetic acid solution and washed several times. After drying the discs are measured for radioactivity in a liquid scintillation counter. The difference in radioactivity between samples with and without added compound is used to calculate the inhibition of the polymerase activity. The inhibition is expressed as percentage inhibition using the radioactivity of the standard sample as basis.
A. Inhibition by phosphonoformic acid of type A influenza virion associated RNA polymerase
Influenza A2 Aichi virus was purified according to the method of Pons and Hirst, Virology 34 385 (1968). The assay mixture is described by Bishop, Obijeski and Simpson, J. Virol. 8 66 (1971).

[3] = test system: Ehrlich ascites tumors (Friend virus); experiment: Survival of NMRI mice bearing Ehrlich ascites tumors; assay type: in vivo; details: 100 mg/kg per day ip, 2% solution pH 7.2; versus 0.95% NaCl control; FIG. 2
Method: The inhibition of reverse transcriptase by phosphonoformic acid (PFA) has prompted an investigation of the effect of PFA on animals with tumors where retroviruses are implicated. Ehrlich ascites tumors (Friend virus) in NMRI mice and YBA solid tumors (Moloney virus) in CBA mice have been used.
NMRI mice were inoculated intraperitoneally with 0.1 ml of a 1/10 dilution of ascitic fluid from a mouse with an Ehrlich ascites tumor. Nine mice were given intraperitoneally 100 mg/kg of PFA per day as a 2% solution at pH 7.2, and 9 mice were treated with 0.95% NaCl ip. CBA mice were inoculated with 7×10^6 cells subcutaneously in the flank. Fifteen CBA mice were given 0.5% PFA at pH 7.2 in the drinking water and fifteen water without addition.

[4] = molecular target: HTLV-III reverse transcriptase (Human immunodeficiency virus type 1 group M subtype B, UniProt P03366); experiment: HTLV-III reverse transcriptase assay; assay type: biochemical
Method: The purified enzyme was stored in 50 mM Tris-HCl (pH 7.5), 1 mM dithiothreitol (DTT), 0.01% Triton X-100 and 20% glycerol. Reverse transcriptase assays were carried out in a reaction mixture (50 μl) containing 50 mM Tris-HCl (pH 7.5), 5 mM DTT, 100 mM potassium chloride, 0.01% Triton X-100 or NP40, 10 μg/ml (dT)15.(A)n as template primer and /^3 H/deoxythymidine triphosphate (/^3 H/-dTTP). The reaction mixture was incubated for 1 hour at 37° and the reaction was stopped by the addition of 50 μg of yeast tRNA and 2 ml of 10% solution of trichloroacetic acid (TCA) containing 1 mM sodium pyrophosphate. The samples were filtered on millipore filters (0.45 μm), washed first with 5% TCA solution (5 times) and then with 2 ml of 70% ethanol. The filters were dried under a heat lamp, scintillation fluid was added and the radioactivity counted in a β-scintillation counter.
The effect of foscarnet on purified HTLV-III reverse transcriptase (RT) was assayed as a function of drug concentration.

Question: With `O=C(O)P(=O)(O)O` [phosphonoformic acid] as the compound, how does the inhibition at 1 µM (herpes simplex type 1; Human alphaherpesvirus 1, 1 μM) read?
Answer: The inhibition at 1 µM was 0%.

Question: What about the inhibition at 15 µM (herpes simplex type 1; Human alphaherpesvirus 1, 15 μM) of the same compound?
Answer: Its inhibition at 15 µM is 50%.

Question: What about the inhibition at 100 µM (herpes simplex type 1; Human alphaherpesvirus 1, 100 μM) of the same compound?
Answer: Its inhibition at 100 µM is 90%.

Question: And the Percent inhibition ([1]; 10 μM, endogenous template)?
Answer: Its Percent inhibition is 15%.

Question: What about the Percent inhibition ([1]; 10 μM, purified enzyme, (rA)n.(dT)10) of the same compound?
Answer: The Percent inhibition was 45%.

Question: And the Percent inhibition ([1]; 10 μM, template/primer (rA)n.(dT)10)?
Answer: The Percent inhibition was 43%.

Question: And the Percent inhibition ([1]; 100 μM, endogenous template)?
Answer: The Percent inhibition was 49%.

Question: What about the Percent inhibition ([1]; 100 μM, purified enzyme, (rA)n.(dT)10) of the same compound?
Answer: Its Percent inhibition is 96%.

Question: What about the Percent inhibition ([1]; 100 μM, template/primer (rA)n.(dT)10) of the same compound?
Answer: The Percent inhibition was 94%.

Question: What about the Percent inhibition ([1]; 500 μM, endogenous template) of the same compound?
Answer: Its Percent inhibition is 70%.

Question: What about the Percent inhibition ([1]; 500 μM, purified enzyme, (rA)n.(dT)10) of the same compound?
Answer: Its Percent inhibition is > 99%.

Question: And the Percent inhibition ([1]; 500 μM, template/primer (rA)n.(dT)10)?
Answer: The Percent inhibition was 99%.

Question: What about the inhibition at 0.1 µM ([2]; 0.1 μM) of the same compound?
Answer: Its inhibition at 0.1 µM is 21%.

Question: What about the inhibition at 0.5 µM ([2]; 0.50 μM) of the same compound?
Answer: Its inhibition at 0.5 µM is > 50%.

Question: What about the inhibition at 1 µM ([2]; 1.00 μM) of the same compound?
Answer: Its inhibition at 1 µM is 79%.

Question: What about the inhibition at 10 µM ([2]; 10 μM) of the same compound?
Answer: The inhibition at 10 µM was 91%.

Question: And the inhibition at 100 µM ([2]; 100 μM)?
Answer: Its inhibition at 100 µM is 95%.

Question: And the inhibition at 500 µM ([2]; 500 μM)?
Answer: Its inhibition at 500 µM is 93%.

Question: And the “survival of mice inoculated with Ehrlich ascites cells” value [3]?
Answer: Its value is “increased survival”.

Question: What about the IC50 ([4]; purified enzyme from different virus isolates, (dT)15.(A)n template primer, read-out: concentration causing 50% inhibition of HTLV-III reverse transcriptase activity) of the same compound?
Answer: The IC50 was 0.1 to 2 µM.

Question: What about the “type of inhibition of reverse transcriptase” value ([4]; with respect to substrate and template) of the same compound?
Answer: The value was “noncompetitive with respect to substrate and uncompetitive with respect to template”.
